Source: patent US20080221086A1, “Novel Inhibitors of Glutaminyl Cyclase” (PROBIODRUG AG, priority 2006, published 2008)

Molecular target: hQC (Homo sapiens, UniProt Q16769)
Test: Fluorometric assay of glutaminyl cyclase (QC) inhibition, H-Gln-βNA or H-Gln-AMC substrate
Type: biochemical
Conditions: compound from preparative synthesis, purified by chromatography; fluorescent assay; read-out: IC50 hQC
Summary of the method: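 Fluorometric coupled assays at 30° C in Tris/HCl pH 8.0 with EDTA and pyroglutamyl aminopeptidase used either 0.2 mM H-Gln-βNA (320/410 nm) or H-Gln-AMC (380/460 nm), started by QC. Screening used 4 mM inhibitor at substrate 1 KM. Ki came from fitting progress curves to competitive inhibition.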

Sequence of hQC (Q16769 29-361): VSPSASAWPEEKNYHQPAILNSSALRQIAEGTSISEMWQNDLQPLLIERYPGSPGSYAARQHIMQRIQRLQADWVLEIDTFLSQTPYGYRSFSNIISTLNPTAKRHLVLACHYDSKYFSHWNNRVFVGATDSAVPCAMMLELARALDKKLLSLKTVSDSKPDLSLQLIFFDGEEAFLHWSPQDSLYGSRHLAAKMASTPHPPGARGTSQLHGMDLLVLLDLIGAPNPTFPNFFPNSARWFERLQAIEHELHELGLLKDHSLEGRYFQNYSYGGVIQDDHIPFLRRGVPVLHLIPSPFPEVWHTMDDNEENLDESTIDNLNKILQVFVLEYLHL

IC50 [nM] | SMILES
1230 | CC(/N=C1\NC(=O)N(c2ccc3[nH]cnc3c2)C1c1ccccc1C(F)(F)F)C(C)(C)C (stereo not drawn) [Compound 138, 1-(1H-Benzoimidazol-5-yl)-5-(2-trifluoromethyl-phenyl)-4-1,2,2-trimethyl-propylimino-imidazolidin-2-one]
19.5 | O=C1N/C(=N/Cc2ccccc2)C(c2ccc(Cl)cc2)N1c1ccc2[nH]cnc2c1 (stereo not drawn) [Compound 162, 1-(1H-Benzoimidazol-5-yl)-4-benzylimino-5-(4-chloro-phenyl)-imidazolidin-2-one]

Same assay, conditions: read-out: IC50

IC50 [nM] | SMILES
2200 | O=C(C/N=C1\NC(=S)N(c2ccc3[nH]cnc3c2)C1c1c(F)ccc(Cl)c1F)N1CCCC(O)C1 (stereo not drawn) [Compound 134, 2-(1-(1H-benzo[d]imidazol-5-yl)-5-(3-chloro-2,6-difluorophenyl)-2-thioxoimidazolidin-4-ylideneamino)-1-(3-hydroxypiperidin-1-yl)ethanone]
5800 | O=C(C/N=C1\NC(=O)N(c2ccc3[nH]cnc3c2)C1c1ccccc1Cl)N1CCSCC1 (stereo not drawn) [Compound 135, 1-(1H-Benzoimidazol-5-yl)-5-(2-chloro-phenyl)-4-2-oxo-2-thiomorpholin-4-yl-ethylimino-imidazolidin-2-one]
6700 | CCc1ccccc1C1/C(=N/C2CCCc3ccccc32)NC(=S)N1c1ccc2[nH]cnc2c1 (stereo not drawn) [Compound 136, 1-(1H-Benzoimidazol-5-yl)-5-(2-ethyl-phenyl)-4-1,2,3,4-tetrahydro-naphthalen-1-yliminoimidazolidine-2-thione]
4000 | S=C1NC(=NCCc2cccs2)C(c2cc3c(cc2Br)OCO3)N1c1ccc2nc[nH]c2c1 (stereo not drawn) [Compound 137, 1-(3H-Benzoimidazol-5-yl)-5-(6-bromo-benzo1,3dioxol-5-yl)-4-2-thiophen-2-yl-ethylimino-imidazolidin-2-thione]
4 | CC(/N=C1\NC(=O)N(c2ccc3[nH]cnc3c2)C1c1ccccc1C(F)(F)F)C(C)(C)C (stereo not drawn) [Compound 138, 1-(1H-Benzoimidazol-5-yl)-5-(2-trifluoromethyl-phenyl)-4-1,2,2-trimethyl-propylimino-imidazolidin-2-one]
9400 | S=C1N/C(=N\C(Cc2ccccc2)c2ccccc2)C(c2cc3c(cc2Br)OCO3)N1c1ccc2[nH]cnc2c1 (stereo not drawn) [Compound 139, 1-(1H-Benzoimidazol-5-yl)-5-(6-bromo-benzo1,3dioxol-5-yl)-4-1,2-diphenyl-ethylimino-imidazolidine-2-thione]
8500 | Cc1ccc(C2/C(=N\c3cccc(C#N)c3)NC(=S)N2c2ccc3[nH]cnc3c2)c(C)c1 (stereo not drawn) [Compound 140, 3-(1-(1H-benzo[d]imidazol-5-yl)-5-(2,4-dimethylphenyl)-2-thioxoimidazolidin-4-ylideneamino)benzo-nitrile]
9400 | C/N=C1/NC(=S)N(c2ccc3[nH]cnc3c2)C1c1ccc(C)cc1 (stereo not drawn) [Compound 141, 1-(1H-Benzoimidazol-5-yl)-4-methylimino-5-p-tolyl-imidazolidine-2-thione]
8500 | Cc1nc[nH]c1C1/C(=N/C2CCCCC2O)NC(=O)N1c1ccc2[nH]cnc2c1 (stereo not drawn) [Compound 142, 3-(1H-Benzoimidazol-5-yl)-5-2-hydroxy-cyclohexylimino-5′-methyl-1,3,4,5-tetrahydro-3′H-4,4′biimidazolyl-2-one]
2200 | O=C(C/N=C1\NC(=S)N(c2ccc3[nH]cnc3c2)C1c1cc2c(cc1Br)OCO2)NN1CCCCC1 (stereo not drawn) [Compound 143]
1300 | O=C(C/N=C1\NC(=S)N(c2ccc3[nH]cnc3c2)C1c1ccccc1C(F)(F)F)N1CCCCC1 (stereo not drawn) [Compound 144, 2-1-(1H-Benzoimidazol-5-yl)-2-thioxo-5-(2-trifluoromethyl-phenyl)-imidazolidin-(4Z)-ylideneamino-1-piperidin-1-yl-ethanone]
4000 | Cc1ccc(C2/C(=N\Cc3ccc4[nH]ccc4c3)NC(=S)N2c2ccc3[nH]cnc3c2)cc1 (stereo not drawn) [Compound 145, 1-(1H-Benzoimidazol-5-yl)-4-1H-indol-5-ylmethylimino-5-p-tolyl-imidazolidine-2-thione]
1300 | S=C1N/C(=N\C2CCc3ccccc32)C(c2ccc(Br)cc2)N1c1ccc2[nH]cnc2c1 (stereo not drawn) [Compound 146, 1-(1H-Benzoimidazol-5-yl)-5-(4-bromo-phenyl)-4-indan-1-ylimino-imidazolidine-2-thione]
5800 | O=C1CCCN1CCC/N=C1\NC(=S)N(c2ccc3[nH]cnc3c2)C1c1ccc(Br)cc1 (stereo not drawn) [Compound 147, 1-{3-1-(3H-Benzoimidazol-5-yl)-5-(4-bromo-phenyl)-2-thioxo-imidazolidin-(4Z)-ylideneamino-propyl}-pyrrolidin-2-one]
3100 | O=C1N/C(=N/Cn2nnc3ccccc32)C(c2cc(F)cc(F)c2)N1c1ccc2[nH]cnc2c1 (stereo not drawn) [Compound 148, 1-(1H-Benzoimidazol-5-yl)-4-benzotriazol-1-ylmethylimino-5-(3,5-difluoro-phenyl)-imidazolidin-2-one]
6700 | FC(F)(F)c1ccccc1/N=C1\NC(=S)N(c2ccc3[nH]cnc3c2)C1C1=CCCCC1 (stereo not drawn) [Compound 149, 1-(1H-Benzoimidazol-5-yl)-5-cyclohex-1-enyl-4-2-trifluoromethyl-phenylimino-imidazolidine-2-thione]
6700 | CC(CC1/C(=N/C2CCCc3ccccc32)NC(=S)N1c1ccc2[nH]cnc2c1)CC(C)(C)C (stereo not drawn) [Compound 150, 1-(1H-Benzoimidazol-5-yl)-4-1,2,3,4-tetrahydro-naphthalen-1-ylimino-5-(2,4,4-trimethyl-pentyl)-imidazolidine-2-thione]

IC50 [nM] | SMILES
4 | CSc1ccc(C2/C(=N\Cn3nnc4ccccc43)NC(=S)N2c2ccc3[nH]cnc3c2)cc1 (stereo not drawn) [Compound 151, 1-(1H-Benzoimidazol-5-yl)-4-benzotriazol-1-ylmethylimino-5-(4-methylsulfanyl-phenyl)-imidazolidine-2-thione]
2200 | O=C(C/N=C1\C(c2cccc(Br)c2)NC(=S)N1c1ccc2[nH]cnc2c1)N1CCSCC1 (stereo not drawn) [Compound 152, 2-(3-(1H-benzo[d]imidazol-5-yl)-5-(3-bromophenyl)-2-thioxoimidazolidin-4-ylideneamino)-1-thiomorpholinoetha-none]
400 | O=C1NC(c2cc(F)cc(F)c2)/C(=N\CC(O)c2ccccc2)N1c1ccc2[nH]cnc2c1 (stereo not drawn) [Compound 153, 1-(1H-Benzoimidazol-5-yl)-5-(3,5-difluoro-phenyl)-4-2-hydroxy-2-phenyl-ethylimino-imidazolidin-2-one]
400 | O=C(C/N=C1\NC(=O)N(c2ccc3[nH]cnc3c2)C1c1c(F)ccc(Cl)c1F)N1CCCC(O)C1 (stereo not drawn) [Compound 154, 1-(1H-Benzoimidazol-5-yl)-5-(3-chloro-2,6-difluoro-phenyl)-4-2-(3-hydroxy-piperidin-1-yl)-2-oxo-ethylimino-imidazolidin-2-one]
4 | O=C1CCCN1CCC/N=C1/NC(=O)N(c2ccc3[nH]cnc3c2)C1c1ccc2nsnc2c1 (stereo not drawn) [Compound 155, 1-(1H-Benzoimidazol-5-yl)-5-benzo[c][1,2,5]thiadiazol-5-yl-4-3-(2-oxo-pyrrolidin-1-yl)-propylimino-imidazolidin-2-one]
400 | Cc1ccc(C2/C(=N/C(C)C)NC(=O)N2c2ccc3[nH]cnc3c2)c(C)c1 (stereo not drawn) [Compound 156, 1-(1H-Benzoimidazol-5-yl)-5-(2,4-dimethyl-phenyl)-4-isopropylimino-imidazolidin-2-one]
5800 | CN(C)CCCN=C1NC(=O)N(c2ccc3[nH]cnc3c2)C1c1ccc2ccccc2c1 (stereo not drawn) [Compound 157, 1-(1H-Benzoimidazol-5-yl)-4-3-dimethylamino-propylimino-5-naphthalen-2-yl-imidazolidin-2-one]
4900 | O=C1N/C(=N\C2CC2)C(c2ccccc2C(F)(F)F)N1c1ccc2[nH]cnc2c1 (stereo not drawn) [Compound 158, 1-(1H-Benzoimidazol-5-yl)-4-cyclopropylimino-5-(2-trifluoromethyl-phenyl)-imidazolidin-2-one]
4 | C/N=C1/NC(=O)N(c2ccc3[nH]cnc3c2)C1c1ccc2ccccc2c1 (stereo not drawn) [Compound 159, 1-(1H-Benzoimidazol-5-yl)-4-methylimino-5-naphthalen-2-yl-imidazolidin-2-one]
2200 | CCc1ccccc1C1/C(=N/C2CCCc3ccccc32)NC(=O)N1c1ccc2[nH]cnc2c1 (stereo not drawn) [Compound 160, 1-(1H-Benzoimidazol-5-yl)-5-(2-ethyl-phenyl)-4-1,2,3,4-tetrahydro-naphthalen-1-ylimino-imidazolidin-2-one]
5800 | S=C1N/C(=N\C2CCCc3ccccc32)C(c2cccc(Br)c2)N1c1ccc2[nH]cnc2c1 (stereo not drawn) [Compound 161, 1-(1H-Benzoimidazol-5-yl)-5-(3-bromo-phenyl)-4-1,2,3,4-tetrahydro-naphthalen-1-ylimino-imidazolidine-2-thione]
4 | O=C1N/C(=N/Cc2ccccc2)C(c2ccc(Cl)cc2)N1c1ccc2[nH]cnc2c1 (stereo not drawn) [Compound 162, 1-(1H-Benzoimidazol-5-yl)-4-benzylimino-5-(4-chloro-phenyl)-imidazolidin-2-one]
4 | O=C1N/C(=N/CCCN2CCOCC2)C(c2ccc3[nH]ccc3c2)N1c1ccc2[nH]cnc2c1 (stereo not drawn) [Compound 163, 1-(1H-Benzoimidazol-5-yl)-5-(1H-indol-5-yl)-4-3-morpholin-4-yl-propylimino-imidazolidin-2-one]
9400 | S=C1N/C(=N\C(Cc2ccccc2)c2ccccc2)C(c2cccc(Br)c2)N1c1ccc2[nH]cnc2c1 (stereo not drawn) [Compound 164, 1-(1H-Benzoimidazol-5-yl)-5-(3-bromo-phenyl)-4-1,2-diphenyl-ethylimino-imidazolidine-2-thione]
7600 | CC1=CC(C)C(C2/C(=N/C(C)C(C)(C)C)NC(=S)N2c2ccc3nc[nH]c3c2)CC1 (stereo not drawn) [Compound 165, 1-(3H-Benzoimidazol-5-yl)-5-(2,4-dimethyl-cyclohex-3-enyl)-4-1,2,2-trimethyl-propylimino-imidazolidine-2-thione]
400 | O=C1CCCN1CCC/N=C1/NC(=O)N(c2ccc3[nH]cnc3c2)C1c1cc2ccccc2s1 (stereo not drawn) [Compound 166, 5-Benzobthiophen-2-yl-1-(1H-benzoimidazol-5-yl)-4-3-(2-oxo-pyrrolidin-1-yl)-propylimino-imidazolidin-2-one]
400 | C/N=C1/NC(=O)N(c2ccc3[nH]cnc3c2)C1c1ccc(C)cc1 (stereo not drawn) [Compound 167, 1-(1H-Benzoimidazol-5-yl)-4-methylimino-5-p-tolyl-imidazolidin-2-one]
